SMILES strings stand for the structures. “And” between values parts separate entries of the source, which are not always exact repeats. Equal entries are not always repeated. Structures can show the parent of a compound that is named as a salt. Numbered stars: 1 amine (or outer) side, 2 acyl side, 3 side chain; on linkers, the order of the positions; unused ones are H or OH. Square brackets hold non-standard residues; d marks the D form. Peptide text beside a SMILES is read from it. * marks the point of attachment. Cyclohexylacetyl(1-SH) = O=C(CC1(S)CCCCC1)*; X1 = O=C(C(C=S)N[*:1])[*:2]

Experiment [1] addresses Alpha-2C adrenergic receptor.
In experiment [2] the target is T1, Alpha-2C adrenergic receptor (Didelphis virginiana, UniProt P35405).
T1 sequence (P35405 whole entry): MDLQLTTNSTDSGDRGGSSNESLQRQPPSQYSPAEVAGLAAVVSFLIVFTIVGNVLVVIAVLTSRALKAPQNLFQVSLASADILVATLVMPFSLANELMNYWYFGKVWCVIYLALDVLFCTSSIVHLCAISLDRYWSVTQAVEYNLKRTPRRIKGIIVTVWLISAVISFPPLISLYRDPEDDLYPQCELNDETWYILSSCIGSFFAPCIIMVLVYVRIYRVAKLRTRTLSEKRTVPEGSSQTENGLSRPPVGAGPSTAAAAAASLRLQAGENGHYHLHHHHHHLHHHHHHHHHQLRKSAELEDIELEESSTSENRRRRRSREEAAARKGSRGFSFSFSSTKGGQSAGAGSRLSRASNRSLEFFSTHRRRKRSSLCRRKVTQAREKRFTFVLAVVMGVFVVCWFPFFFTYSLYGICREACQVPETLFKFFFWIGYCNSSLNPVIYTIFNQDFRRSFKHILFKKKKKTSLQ

The target of experiment [3] is T2, Alpha-2B adrenergic receptor (Rattus norvegicus, UniProt P19328).
T2 sequence (P19328 whole entry): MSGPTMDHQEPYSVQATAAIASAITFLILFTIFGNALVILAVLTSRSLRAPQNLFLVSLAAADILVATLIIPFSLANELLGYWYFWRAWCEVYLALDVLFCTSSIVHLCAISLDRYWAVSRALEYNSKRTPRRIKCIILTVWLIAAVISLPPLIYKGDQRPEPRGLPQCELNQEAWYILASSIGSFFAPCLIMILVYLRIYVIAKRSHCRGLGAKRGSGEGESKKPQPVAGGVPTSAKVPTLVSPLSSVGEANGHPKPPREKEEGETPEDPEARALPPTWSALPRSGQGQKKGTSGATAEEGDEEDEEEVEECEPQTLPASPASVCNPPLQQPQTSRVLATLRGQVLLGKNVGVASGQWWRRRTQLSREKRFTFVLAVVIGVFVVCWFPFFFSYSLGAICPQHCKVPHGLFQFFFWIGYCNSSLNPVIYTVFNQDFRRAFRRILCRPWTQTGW

For experiment [4], the target named is T3, Alpha-2A adrenergic receptor (Homo sapiens, UniProt P08913).
T3 sequence (P08913 whole entry): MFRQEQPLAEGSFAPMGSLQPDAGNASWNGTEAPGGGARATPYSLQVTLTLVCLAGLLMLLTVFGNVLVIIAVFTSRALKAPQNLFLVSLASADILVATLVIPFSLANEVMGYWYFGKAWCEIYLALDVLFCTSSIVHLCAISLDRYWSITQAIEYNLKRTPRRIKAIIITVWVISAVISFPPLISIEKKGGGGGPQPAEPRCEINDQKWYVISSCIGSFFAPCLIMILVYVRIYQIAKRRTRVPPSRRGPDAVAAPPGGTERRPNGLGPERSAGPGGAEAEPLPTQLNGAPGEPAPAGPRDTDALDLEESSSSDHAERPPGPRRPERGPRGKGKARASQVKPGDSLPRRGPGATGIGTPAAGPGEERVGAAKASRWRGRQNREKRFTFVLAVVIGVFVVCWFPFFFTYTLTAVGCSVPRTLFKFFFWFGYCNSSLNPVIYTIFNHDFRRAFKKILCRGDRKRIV

What is called Ki is a dissociation constant, usually derived from enzyme kinetics or from competition with a known ligand. A high value points to weaker binding. Turning to `CSc1ccc2c(c1)N(CC[C@@H]1CCCCN1C)c1ccccc1S2` [10-[2-(1-Methyl-piperidin-2-yl)-ethyl]-2-methylsulfanyl-10H-phenothiazine (thioridazine)], in experiment [1], the Ki came out at 549 nM.

As for `Cc1cc(C(C)(C)C)c(O)c(C)c1CC1=NCCN1` [SMR000059324], in experiment [2], the affinity corresponds to a Ki of 73 nM.

In the case of `CN1CCN(C2=c3ccccc3=Nc3ccc(Cl)cc3N2)CC1` [6-chloro-10-(4-methylpiperazin-1-yl)-2,9-diazatricyclo[9.4.0.0^{3,8}]pentadeca-1,3(8),4,6,10,12,14-heptaene], the affinity in experiment [1], expressed as Ki, was 4.2 nM.

For the molecule `Clc1cccc2c1CN(NC1=NCCN1)C2` [CAS_76727-72-5], the Ki was 0.08 nM in experiment [1], 0.14 nM in experiment [3] and 0.06 nM in experiment [4].

For the molecule `CCCN(CCC)C1CCc2cccc(O)c2C1` (stereo unspecified), the Ki turned out to be 117 nM in experiment [1], 148 nM in experiment [3] and 186 nM in experiment [4].

For `CCC1(c2cnc[nH]2)Cc2ccccc2C1` [NSC_71310], the Ki in experiment [1] stood at 0.46 nM; in experiment [4], 0.33 nM; in experiment [2] it was 2.74 nM.

Turning to `c1cn2ccnc2c(N2CCNCC2)n1` [L-639,019], the Ki in experiment [1] was 88 nM; in experiment [3], 34 nM; in experiment [4] it was 35 nM.

For `O=C(c1ccc(F)cc1)C1CCN(CCn2c(=O)[nH]c3ccccc3c2=O)CC1` [3-(2-{4-[(4-fluorophenyl)carbonyl]piperidin-1-yl}ethyl)-1,2,3,4-tetrahydroquinazoline-2,4-dione], the Ki in experiment [1] stood at 159 nM; in experiment [3] it was 226 nM.

Consider `c1ccc2c(c1)OCC(C1=NCCN1)O2` (stereo unspecified), for which the Ki in experiment [1] was determined as 0.56 nM; in experiment [2], 2.4 nM.

`c1ccc2c(c1)OCC(CN1CCCCC1)O2` (stereo unspecified) [Piperoxan]: the Ki in experiment [1] is 1.3 nM; in experiment [3], 2 nM; in experiment [4], 5.4 nM.

In the case of `CCCCS(=O)(=O)N(C)[C@H]1CCN2CCc3ccccc3[C@H]2C1` [N-[(2S,11bR)-2,3,4,6,7,11b-hexahydro-1H-benzo[a]quinolizin-2-yl]-N-methylbutane-1-sulfonamide hydrochloride], the Ki in experiment [1] worked out at 0.46 nM; in experiment [3], 1.7 nM; in experiment [4], 1.4 nM.

Take `CN1CCc2cccc(Cl)c2CC1` [MLS002172470]: the Ki in experiment [1] turned out to be 2.7 nM; in experiment [3] it was 1.8 nM; in experiment [4], 2.4 nM.

On to `CN1C[C@H](Cn2ccnc2-c2ccccc2)C[C@@H]2c3cccc4[nH]c(Br)c(c34)C[C@H]21` [BAM-1303], for which the Ki in experiment [1] was determined as 0.38 nM; in experiment [3] it was 26 nM; in experiment [4], 2.5 nM.

For the molecule `Cc1cccc(C)c1CCc1cnc[nH]1` [CAS_133305], the Ki in experiment [1] stood at 14 nM; in experiment [3], 18 nM; in experiment [4], 8.7 nM.

Take `CCOc1ccc(CC(NC(=O)CC2(S)CCCCC2)C(=O)NC(Cc2ccccc2)C(=O)NC(C(=O)NC(CC(N)=O)C(=O)NC(C=S)C(=O)NC(CCCCN)C(N)=O)C(C)C)cc1` (stereo unspecified) [CAS_196343] ({Cyclohexylacetyl(1-SH)}-Y(Et)FVN[X1]K-NH2; configuration not given here): the Ki in experiment [1] amounted to 0.14 nM; in experiment [3] it was 0.48 nM; in experiment [4], 0.36 nM.

On to `COC(=O)C1=CO[C@@H](C)[C@@H]2CN3CCc4c([nH]c5ccccc45)[C@H]3C[C@H]12` [AKUAMMIGINE], for which the Ki was 12 nM in experiment [1], 208 nM in experiment [3] and 130 nM in experiment [4].

Regarding `OCCN1CCN(CCCN2c3ccccc3Sc3ccc(C(F)(F)F)cc32)CC1` [2-[4-[3-[2-(trifluoromethyl)phenothiazin-10-yl]propyl]piperazin-1-yl]ethanol;hydrochloride], the Ki in experiment [1] was 122 nM; in experiment [3], 320 nM; in experiment [4], 304 nM.

`Cc1nc2n(c(=O)c1CCN1CCC(C(=O)c3ccc(F)cc3)CC1)CCS2` [CAS_86487-64-1]: the values for the Ki in experiment [1], in experiment [3] and in experiment [4] were 51 nM, 25 nM and 90 nM, respectively.

Turning to `CCOC1(C2=NCCN2)COc2ccccc2O1` (stereo unspecified) [NSC_125992], the Ki stood at 0.24 nM in experiment [1], 0.58 nM in experiment [3] and 0.2 nM in experiment [4].

For the molecule `COc1cccc(OC)c1OCCNCC1Oc2ccccc2OC1c1ccccc1` (stereo unspecified) [NSC_185453], the Ki in experiment [1] came to 0.27 nM; in experiment [3], 8.7 nM; in experiment [4] it was 1.2 nM; in experiment [2], 1.6 nM.

Turning to `CN1CCN(C2=Nc3ccccc3Sc3nccn32)CC1` [CGS-10746B], the figures for the Ki in experiment [1], in experiment [3] and in experiment [4] were 804 nM, 574 nM and 3600 nM, respectively.

For `CS(=O)(=O)NCCN(C1CCN2CCc3ccccc3C2C1)S(C)(=O)=O` (stereo unspecified) [CAS_125697], the Ki in experiment [1] amounted to 0.56 nM; in experiment [3] it was 5.2 nM; in experiment [4], 11 nM.

Regarding `Clc1ccc2nsnc2c1NC1=NCCN1`, the inhibition constant (Ki) came to 75 nM in experiment [1] and 76 nM in experiment [3].

As for `CN1c2ccc(F)cc2CC1C1=NCCN1` (stereo unspecified), the Ki came to 0.48 nM in experiment [1], 1 nM in experiment [3] and 0.4 nM in experiment [4].

Turning to `CC(C)=CCOc1ccc(Cl)c2c1CCN(C)CC2` [SK&F-104078], the Ki amounted to 43 nM in experiment [1], 49 nM in experiment [3] and 32 nM in experiment [4].

As for `C=CCN1Cc2ccccc2-c2ccccc2C1` [NSC_8966], the figures for the Ki in experiment [1], in experiment [3] and in experiment [4] were 14 nM, 5.3 nM and 38 nM, respectively.

With `COc1cc2nc(N3CCN(C(=O)c4ccco4)CC3)nc(N)c2cc1OC` [[3H]-Minipress], the inhibition constant (Ki) in experiment [1] worked out at 15 nM; in experiment [2], 36 nM.

As to `CC(C)(C)[C@]1(O)CCN2C[C@H]3c4ccccc4CCc4cccc(c43)[C@@H]2C1`, the Ki is 42 nM in experiment [1], 12 nM in experiment [3] and 53 nM in experiment [4].

For `CCCS(=O)(=O)N(C)C1CCN2CCc3ccccc3C2C1` (stereo unspecified) [CAS_133816], the figures for the Ki in experiment [1], in experiment [3] and in experiment [4] were 0.86 nM, 1.9 nM and 2.2 nM, respectively.

As for `c1ccc(CC2=NCCN2)cc1` [Tolazoline], the Ki in experiment [1] came out at 222 nM; in experiment [3], 113 nM.

With `CN(C)CCCN1c2ccc(O)cc2Sc2ccc(Cl)cc21` [NSC_16414], the values for the Ki in experiment [1] and in experiment [3] were 325 nM and 59 nM, respectively.

Take `O=C1c2ccccc2CCC1CNCCc1ccc(O)cc1` (stereo unspecified) [CAS_34772]: the Ki came to 0.5 nM in experiment [1], 0.68 nM in experiment [3] and 0.93 nM in experiment [4].

Regarding `CN1CCC2(CCN3CCc4c(oc5ccccc45)C3C2)N(C)C1=O` (stereo unspecified) [MK-912], the results for the Ki in experiment [1], in experiment [3] and in experiment [4] were 0.03 nM, 0.26 nM and 0.42 nM, respectively.

For `Oc1ccc(C2CNCCc3c2cc(O)c(O)c3Cl)cc1` (stereo unspecified) [MLS001401388], the Ki was 22 nM in experiment [1] and 91 nM in experiment [3].

Consider `Fc1cccnc1N1CCNCC1` [L-644,763], for which the Ki turned out to be 20 nM in experiment [1], 23 nM in experiment [3] and 20 nM in experiment [4].

`CN(C)CCCN1c2ccccc2Sc2ccc(Cl)cc21` [[3-(2-Chloro-phenothiazin-10-yl)-propyl]-dimethyl-amine(Chlorpromazine)]: the Ki in experiment [2] turned out to be 116 nM.

With `Clc1cncc(N2CCNCC2)n1` [L-630,571], the Ki was 126 nM in experiment [1], 125 nM in experiment [3] and 153 nM in experiment [4].

Regarding `COC(=O)C1=COC(C)C2CN3CCc4c([nH]c5ccccc45)C3CC12` (stereo unspecified) [Ajmalicine], the Ki in experiment [1] is 1.1 nM and 0.3 nM.

With `COc1ccccc1N1CCN(CCC2C(=O)c3ccccc3C(C)(C)C2=O)CC1` (stereo unspecified) [NSC_122211], the Ki in experiment [1] was found to be 13 nM; in experiment [3] it was 1.6 nM; in experiment [4], 171 nM; in experiment [2], 48 nM.

Regarding `O=C1NCN(c2ccccc2)C12CCN(CC1COc3ccccc3O1)CC2` (stereo unspecified) [8-(2,3-Dihydro-benzo[1,4]dioxin-2-ylmethyl)-1-phenyl-1,3,8-triaza-spiro[4.5]decan-4-one], the Ki is 0.59 nM in experiment [1], 0.34 nM in experiment [3], 13 nM in experiment [4] and 0.67 nM in experiment [2].

The values above are taken from BindingDB's records for PubMed 1656026 (University of Nebraska, 1991).
